In patent US20040127433A1, “Erythromycin derivative and medicament comprising the same” (priority 2000, published 2004):
Values after ≈ are worked out from the molar mass of the structure shown. Where two headings read alike, the source gives them in different places.

Key:
[1] = tested on: clinical isolates of a typical acid-fast mycobacteria; test: microbe, parasite or virus in culture; assay type: cell-based, Mycobacterium; settings: 7H11 agar, 37° C., 7 days; for MIC: 168 h
Method: (§1) In order to evaluate excellent efficacy of the compounds of the present invention, their antibacterial spectrums against a typical acid-fast mycobacteria were measured. Clarithromycin, rifampicin and 4″-O-acetylerythromycin A 9-(O-methyloxime) [a compound disclosed in the Japanese Patent Unexamined Publication (KOKAI) No.63-107921/1988] were used as reference compounds. Ac in the formula represents acetyl group. [drawing 1313]
(§2) Antibacterial Activity Against a Typical Acid-Fast Mycobacteria
(§3) Antibacterial activities (minimum inhibitory concentrations) against clinical isolates of a typical acid-fast mycobacteria were measured by the agar dilution method according to the standard method of the Japan Society of Chemotherapy. About 5 μl of bacterial suspension (adjusted to […]) were spotted on the 7H11 agar plates containing the test compounds. The minimum inhibitory concentrations were determined by the growth or no growth of the bacteria after incubation at 37° C. for 7 days. The abbreviation M in the table represents Mycobacterium. The compounds of the present invention had more excellent antibacterial activity than the reference compounds against a typical acid-fast mycobacteria including clarithromycin-resistant strains (M.avium 20092 and other bacteria).

M.avium 20092 = test: Antibacterial activity (minimum inhibitory concentration), agar dilution method, clarithromycin-resistant strain; assay type: cell-based, Mycobacterium avium; settings: M. avium 20092 (clarithromycin-resistant), 7H11 agar, 37° C., 7 days; for MIC: Mycobacterium avium, 168 h
Method: as §1, §2, §3

[2] = Mycobacterium avium, read-out: Minimum inhibitory concentration, M. avium 20034
[3] = Mycobacterium avium, read-out: Minimum inhibitory concentration, M. avium 20045
[4] = Mycobacterium avium, read-out: Minimum inhibitory concentration, M. avium 20096
[5] = Mycobacterium intracellulare, read-out: Minimum inhibitory concentration, M. intracellulare 20066
[6] = Mycobacterium intracellulare, read-out: Minimum inhibitory concentration, M. intracellulare 20067
[7] = Mycobacterium intracellulare, read-out: Minimum inhibitory concentration, M. intracellulare 20073
[8] = Mycobacterium intracellulare, read-out: Minimum inhibitory concentration, M. intracellulare 20075

Row | Molecule | Minimum inhibitory concentration ([1]; M. avium 20034) [µg/mL] | Minimum inhibitory concentration ([1]; M. avium 20045) [µg/mL] | Minimum inhibitory concentration ([1]; M. avium 20096) [µg/mL] | Minimum inhibitory concentration ([1]; M. intracellulare 20066) [µg/mL] | Minimum inhibitory concentration ([1]; M. intracellulare 20067) [µg/mL] | Minimum inhibitory concentration ([1]; M. intracellulare 20073) [µg/mL] | Minimum inhibitory concentration ([1]; M. intracellulare 20075) [µg/mL] | Minimum inhibitory concentration (M.avium 20092) [µg/mL] | melting point [°C] | MIC [1, 2] [µg/mL] | MIC [1, 3] [µg/mL] | MIC [1, 4] [µg/mL] | MIC [1, 5] [µg/mL] | MIC [1, 6] [µg/mL] | MIC [1, 7] [µg/mL] | MIC [1, 8] [µg/mL] | MIC (M.avium 20092) [µg/mL]
1 | 4″-O-Acetyl-2′-O-benzylaminocarbonylerythromycin A 9-[O-(3-cyclo-hexylpropyl)oxime] [Example 40] | 0.39 | 0.78 | 0.78 | 0.20 | 0.78 | 0.78 | 0.78 | 0.78 | – | – | – | – | – | – | – | – | –
2 | CC[C@H]1OC(=O)[C@H](C)[C@@H](O[C@H]2C[C@@](C)(OC)[C@@H](O)[C@H](C)O2)C[C@@H](O[C@@H]2O[C@H](C)C[C@H](N(C)C)[C@H]2OC(=O)NCc2ccccc2)C(C)(O)C[C@@H](C)C(=NOCCCOc2ccccc2)[C@H](C)[C@@H](O)[C@]1(C)O (some centres unmarked) [Example 34] | – | – | – | – | – | – | – | – | 107 to 110 | – | – | – | – | – | – | – | –
3 | CCCCCCCCON=C1[C@H](C)CC(C)(O)[C@H](O[C@@H]2O[C@H](C)C[C@H](N(C)C)[C@H]2OC(=O)NCc2ccccc2)C[C@H](O[C@H]2C[C@@](C)(OC)[C@@H](OC(C)=O)[C@H](C)O2)[C@@H](C)C(=O)O[C@H](CC)[C@@](C)(O)[C@H](O)[C@H]1C (some centres unmarked) [Example 94] | – | – | – | – | – | – | – | – | – | 0.39 (≈ 0.381 µM) | 0.78 (≈ 0.763 µM) | 0.39 (≈ 0.381 µM) | 0.39 (≈ 0.381 µM) | 0.39 (≈ 0.381 µM) | 0.39 (≈ 0.381 µM) | 0.39 (≈ 0.381 µM) | 0.39 (≈ 0.381 µM)
4 | CC[C@H]1OC(=O)[C@H](C)[C@@H](O[C@H]2C[C@@](C)(OC)[C@@H](O)[C@H](C)O2)[C@H](C)[C@@H](O[C@@H]2O[C@H](C)C[C@H](N(C)C)[C@H]2O)[C@](C)(OC)C[C@@H](C)C(=O)[C@H](C)[C@@H](O)[C@]1(C)O [compound 1, Clarithromycin] | – | – | – | – | – | – | – | – | – | 3.13 (≈ 4.18 µM) | 1.56 (≈ 2.09 µM) | > 50 | 3.13 (≈ 4.18 µM) | 1.56 (≈ 2.09 µM) | 1.56 (≈ 2.09 µM) | 3.13 (≈ 4.18 µM) | > 50
5 | CO[C@H]1/C=C/O[C@@]2(C)Oc3c(C)c(O)c4c(O)c(c(/C=N/N5CCN(C)CC5)c(O)c4c3C2=O)NC(=O)/C(C)=C\C=C\[C@H](C)[C@H](O)[C@@H](C)[C@@H](O)[C@@H](C)[C@H](OC(C)=O)[C@@H]1C [compound 2, rifampicin] | – | – | – | – | – | – | – | – | – | 12.5 (≈ 15.2 µM) | 3.13 (≈ 3.8 µM) | 3.13 (≈ 3.8 µM) | 3.13 (≈ 3.8 µM) | 1.56 (≈ 1.9 µM) | 3.13 (≈ 3.8 µM) | 3.13 (≈ 3.8 µM) | 50 (≈ 60.8 µM)
6 | CC[C@H]1OC(=O)[C@H](C)[C@@H](O[C@H]2C[C@@](C)(OC)[C@@H](OC(C)=O)[C@H](C)O2)[C@H](C)[C@@H](O[C@@H]2O[C@H](C)C[C@H](N(C)C)[C@H]2O)[C@](C)(O)C[C@@H](C)C(=NOC)[C@H](C)[C@@H](O)[C@]1(C)O [compound 3, 4″-O-acetylerythromycin A 9-(O-methyloxime)] | >50 | 12.5 (≈ 15.5 µM) | >50 | 12.5 (≈ 15.5 µM) | 6.25 (≈ 7.76 µM) | 12.5 (≈ 15.5 µM) | 12.5 (≈ 15.5 µM) | >50 | – | – | – | – | – | – | – | – | –
